ChEMBL document CHEMBL3507680, “University of Dundee, Gates Library screen for HepG2 cell viability”

Test: Human HepG2 cell viability assay in 384 well format
Type: toxicity, cell-based
Set-up: dose 125 nL, time 70.5 hour; concentration not given beside the values
Conditions: HepG2 cells, read-out: Inhibition

Structure (SMILES)	cytotoxicity at 70.5 h [%]
CN(C)C(=O)Cn1cc(C(=O)NCCc2ccc(Cl)cc2Cl)nn1	-0.867
c1cc(CN2CCCC2)cc(-n2ccnc2-c2ccncc2)c1	0.243
CCCn1cc(C(=O)N2CCCC2(C)c2nc(C)cc(N)n2)cn1 (stereo not drawn)	-1.03
CC(C)N(C)[C@@H]1CCN(C(=O)[C@H]2CCCO2)[C@H]1Cc1cnn(C)c1	-4.8
Cc1cnn(C2CCCN(C(=O)CCCc3ccccn3)C2)c1 (stereo not drawn)	-1.28
O=C(c1cccc(-n2cccn2)c1)N1CCOC(CCO)C1 (stereo not drawn)	1.32
COCC(=O)N1Cc2nc3c(C)c(-c4cccs4)nn3c(O)c2C1	-0.72
Cn1ccc2ccc(C(=O)N3CCN(C(=O)N4CCOCC4)CC3)cc21	23.3
CCc1nc(CN2CCCN(C(=O)C(C)COC)CC2)cs1 (stereo not drawn)	-2.68
CC(=O)Nn1ccc2c(nnc3c(-c4ccc(F)cc4)cnn32)c1=O	-20.1
Cc1cccc(N2CCN(C(=O)NC(C)c3nncn3C)CC2)c1 (stereo not drawn)	20.1
CC(=O)c1ccc(Cl)c(Cl)c1OCC(=O)NC(C)C	-6.15
COCCC(=O)NCC1COc2cc(OC)ccc2C1 (stereo not drawn)	-12.7
N#CCCCn1nnnc1Cc1ccc(Br)cc1	-13.9
O=C(CN1CCCC(c2ccn[nH]2)C1)Nc1nc2c(s1)CCCC2 (stereo not drawn)	1.65
Cc1cc(C(C)NC(=O)N2CCC(n3cncn3)CC2)c(C)s1 (stereo not drawn)	-17.7
CCOc1ccccc1CN(CC)Cc1ccc(S(C)(=O)=O)cc1	-5.03
c1coc(-c2nc(CNC3CCC4(CCNCC4)CC3)no2)c1	-3.78
COCC1CN(C(=O)c2cccc(C)n2)Cc2nccn2C1 (stereo not drawn)	-10.2
CC(C)CN(CCc1ccccc1)Cc1nc2c(cnn2C)c(=O)[nH]1	-3.12
Cn1c(=O)[nH]c2cc(C(=O)OCCCn3ccccc3=O)ccc21	33.2
CCCOCC1CCN(C(=O)c2cnc(C)nc2O)C1 (stereo not drawn)	-2.13
Cc1cc(C2CCCN(C(=O)COc3cccc(F)c3)C2)n[nH]1 (stereo not drawn)	-5.26

Structure (SMILES)	cytotoxicity at 70.5 h [%]
CN(Cc1ccco1)C[C@H]1OC[C@@H]2CN(c3ncc(F)cn3)CC[C@@H]21	-1.81
Cc1cnn(CC2CCN(CC(O)Cn3cccn3)CC2)c1 (stereo not drawn)	-6.24
COCCO[C@H]1CCN(c2cc(OC)ncn2)[C@H]1Cc1cccnc1	7.05
CC(C)c1cc(N2CCCC3(CCN(C)C3)C2)ncn1 (stereo not drawn)	-5.86
N#CC1(C(=O)Nc2ccc(OC(F)F)cc2)CCCC1	8
CCn1nnc(NCc2cc(Br)cc(Br)c2OC)n1	-18.9
CC1(C)CNC(=O)CN(C(=O)CCc2ccccc2)C1	-3.7
CC(C)c1nc(CN(C)Cc2ccc(O)c(Cl)c2)cs1	-13.5
CCCN(C(=O)CN1CCn2c(nnc2C2CC2)C1)C1=CCCCC1	-13.5
O=C(O)c1ccccc1-c1ccc(CN2CCC(CO)C2)cn1 (stereo not drawn)	15.8
CN1CCN(C(CNC(=O)CCn2cccn2)c2cccs2)CC1 (stereo not drawn)	-4.76
CN(Cc1noc2c1CCCC2)C(=O)C1Cc2ccccc2CN1C (stereo not drawn)	-6.59
Cc1cc(C2CCCN2S(=O)(=O)c2cnn(C)c2)on1 (stereo not drawn)	-6.62
Cc1nc(C)n(CC2CN(Cc3cc(C#N)ccc3F)CCO2)n1 (stereo not drawn)	-1.96
Cc1nc(C2CCCN(C(=O)Cn3ccccc3=O)C2)sc1C (stereo not drawn)	-2.49
Cn1cc(CN2CCOCC3(C2)CN(c2ccccc2)C(=O)CO3)cn1 (stereo not drawn)	-5.28
CC(C)(C)NC(=O)NC(=O)COc1nc(C(C)(C)C)no1	13
c1csc(-c2nc(CN3CCn4c(nnc4C4CC4)C3)co2)c1	-13.1
CCC[C@H]1CN(S(C)(=O)=O)C[C@@H]1NC(=O)c1ccc(COC)cc1	0.361
CCc1nc(C2CCCN(c3ncccn3)C2)no1 (stereo not drawn)	-2.54
CCOc1ccc(-c2ccnc(COc3ccccc3)n2)cc1C(=O)O	-0.267
COCCCn1c(CN2CCCCO2)cnc1S(=O)(=O)C1CCCC1	-4.4
Cc1ccnn1CC(=O)N1CCN(C2CCc3ccccc3C2)CC1 (stereo not drawn)	3.04

Structure (SMILES)	cytotoxicity at 70.5 h [%]
Cc1sc2c(C3CCNCC3)nc(Nc3cccc(F)c3)n2c1C	15.7
O=C(c1cccnc1-n1cncn1)N1CCc2ccccc2C1	-10.4
COc1cc(N2CCN(Cc3ccc(C)o3)C(CCO)C2)nc(N)n1 (stereo not drawn)	-4.16
Cc1ccc(CNC(=O)Cn2c(=O)c3cccnc3n2C)cc1F	-12.5
CCc1nc(C2CCCN(c3nccc(C)n3)C2)no1 (stereo not drawn)	-12.5
COc1ccccc1-c1ccc(NCc2cn3c(n2)SCC3)nn1	-7.12
Cc1nc2ncccn2c1C(=O)N1CCc2[nH]cnc2C1	-1.79
Cc1nc2cc(=O)[nH]n2c(C)c1CC(=O)Nc1cnn(C(C)(C)C)c1	-3.02
CCOCC1CN(C(=O)c2cnoc2C)Cc2cnn(C)c21 (stereo not drawn)	-12.5
CC(=O)N1CCC(C(=O)Nc2nnc(C(F)(F)F)[nH]2)CC1	-8.53
Cc1cccc(CN2C(=O)CC[C@@H]3[C@H]2CCN3C(=O)c2ccsc2)n1	-12.3
O=C(c1ccccc1)N1CCCC2(CCN2Cc2cccc(F)c2)C1 (stereo not drawn)	-9.02
CNS(=O)(=O)c1ccccc1N1CCN(C(=O)C(C)C)CC1	-5.83
CNc1cc(C)nc(N2CCC3(CC2)[C@H](O)C[C@@H]3O)n1	-6.92
CN(C(=O)c1ccc(NC(=O)c2cc[nH]n2)cc1)C1CCCCC1	-9.38
c1nc2c(c(N3CCOC(Cn4cncn4)C3)n1)CCC2 (stereo not drawn)	-7.61
CCn1cc(CN2CCCN(C(=O)c3cccn3C)CC2)cn1	-7.92
Cn1ccc(CN2CCCC23CCN(Cc2ccccc2F)CC3)n1	-4.06
CCOC(=O)c1n[nH]cc1CN1CCOC(Cc2ccc(OC)cc2)C1 (stereo not drawn)	-3.26
CO[C@H]1CNC[C@@H]1NC(=O)c1cc(C)nc2c(C)c(C)ccc12	5.29
Cc1ccc(C(=O)N2CCC3(CCC(=O)N(CCCO)C3)CC2)c(O)c1	-8.79
Cc1nc(N(C)C/C=C/c2ccccc2)c2cnn(C)c2n1	-5.71
CCN(CC)C1CCN(c2ncnc3c2CCN(C(=O)C2CC2)C3)C1 (stereo not drawn)	-2.79

Structure (SMILES)	cytotoxicity at 70.5 h [%]
CC(C1CCN(Cc2cnn(C)c2C2CC2)CC1)N(C)C (stereo not drawn)	-7.09
Cc1nn(C)cc1C1SCC(=O)Nc2c1c(O)nn2C(C)C (stereo not drawn)	-31.1
CN1CC2(CCCN(C(=O)c3cnc4ccc(F)cc4c3O)C2)OC1=O (stereo not drawn)	-6.43
CN1CCN(CC(NCc2cccc(O)c2)c2ccccc2)CC1 (stereo not drawn)	-5.45
Cc1cnc(CNC(=O)C[C@@H]2COC[C@H]3CN(C4CCC4)C[C@@H]23)cn1	25.6
CCOc1ccc(-n2nnc(C(=O)O)c2-c2ccncc2)cc1	12.9
Cc1nc(CN2CCC3(CC2)CC(c2cccnc2)C(=O)N3C)cs1 (stereo not drawn)	-3.5
COCc1nc(C(=O)NS(=O)(=O)c2ccc(C)s2)cs1	-4.27
O=C1CC(N2CCN(c3ccccc3O)CC2)C(=O)N1Cc1cccs1 (stereo not drawn)	-12.2
CC(=O)NCC1CCC2(CCN(c3ncnc4oc(C)nc34)CC2)O1 (stereo not drawn)	21.7
CCN(Cc1ccncc1)C(=O)C(C)n1ccnc1C(C)C (stereo not drawn)	-11.1
COc1cccc(NC(=O)NC2(c3noc(CN(C)C)n3)CCCC2)c1	-10.2
O=C(Cc1ccccn1)N1CCc2c(O)nc(-c3cnccn3)nc2C1	-6.46
COCc1noc(CN2C(=O)OC[C@@H]2C(C)C)n1	19.3
CCc1nc(C)c(C(C)N(C)CCc2ccccn2)s1 (stereo not drawn)	9.61
O=S(=O)(NC1CCC2(CC1)OCCO2)c1ccccc1Br	-1.96
Cc1cscc1-c1nc(C2CCOC2)no1 (stereo not drawn)	-5.31
COCCN1C(=O)CC(c2cccnc2)C12CCN(C(=O)C1CC1)CC2 (stereo not drawn)	-0.348
O=C(c1ccccc1F)N(CCCO)S(=O)(=O)c1cccs1	-9.23
CCc1ccc(C(=O)N(CC(F)(F)F)C2CCCOC2)o1 (stereo not drawn)	-6.93
Cc1cc(N[C@@H](CO)c2ccccc2)n2nc(C)c(C)c2n1	-2.95
NC(=O)N1CC[C@H](O)[C@@H]1Cc1ccccc1	-8.95
Cc1cccc(C(=O)N2CCN(C)CC2)c1NC(=O)c1ccncc1	17.6

Structure (SMILES)	cytotoxicity at 70.5 h [%]
CCN(C)CC(=O)N1CCC(c2cc(N3CCOCC3)nc(C)n2)CC1	-11.5
Cc1ccc(N(C)C2CCN(C(=O)c3ccsc3)CC2)nn1	-13.8
CN(C)C(C)(C)CNC(=O)C(C)(C)c1ccccc1F	4.83
CCO[C@@H]1C[C@H]2CN(Cc3ccc(C)o3)CCN2C1	-11.9
Cc1cnc(CNC(=O)NC2CCCN(c3ccccc3F)C2)s1 (stereo not drawn)	-3.86
O=C(NC[C@H]1OC[C@@H](N(CC2CC2)CC2CC2)[C@@H]1O)Nc1ccccc1	-8.13
COc1ncccc1CNC(=O)CN1CCCCCC1=O	-16.5
Cc1cnn(CCNCc2nnc(Cc3ccccc3)o2)c1	-1.13
Cn1cc(C(=O)NCc2cn3c(n2)CN(CC2CCOCC2)CC3)cn1	-1.1
Cc1ccc(N2C[C@H](C)[C@]3(CCN(c4cccnc4)C3=O)C2)nn1	-3.28
CC(C)N(C)C[C@H]1OC[C@@H]2CCN(Cc3cccc(C#N)c3)C[C@@H]21	14.2
CS(=O)(=O)Cc1ccc(NC(=O)c2cccnc2)cc1F	-6.22
CCC(C(=O)NCC1=CCN(C)CC1)c1ccccc1 (stereo not drawn)	30
O=C(CSCC1CC1)N1CCCC(c2nccn2Cc2ccccn2)C1 (stereo not drawn)	0.457
O=C(c1cc(-c2ccco2)cs1)N1CCOCC1	-0.411
CCc1nc(C)c(C(=O)NCCN2CCCC2)s1	-5.7
CCC(NC(=O)c1nn(C)cc1C(=O)O)c1ccc(C)cc1C (stereo not drawn)	-6.11
Cc1ccccc1CCC(=O)N1CCc2ncnc(NCCO)c2CC1	-0.133
Cc1cnc(CN2CCN(C(C)c3nc(C4CC4)no3)CC2)cn1 (stereo not drawn)	-6.13
CCOC(=O)C1CCN(C(=O)c2cc(Br)ccc2-n2cnnn2)CC1	-6.49
O=C(C1CC12CCC2)N1CCC(n2cc(-c3ccsc3)nn2)CC1 (stereo not drawn)	-9.29
